# Tests used:
# [1] = pH of solutions of Phosphomycine Trometamol with and without ascorbic acid in water; format: physicochemical
# susceptible bacteria = settings: cited from earlier work
SMILES,pH in 50 ml water ([1]; 5.631 g Phosphomycine Trometamol (+ 1.0 g ascorbic acid) in 50 ml water),pH in 100 ml water ([1]; 5.631 g Phosphomycine Trometamol (+ 1.0 g ascorbic acid) in 100 ml water),pH in 150 ml water ([1]; 5.631 g Phosphomycine Trometamol (+ 1.0 g ascorbic acid) in 150 ml water),"efficiency in vitro depending on environmental conditions (susceptible bacteria; in the presence of Alkali pH, glycose, phosphate, and sodium chloride)",time in which efficiency on susceptible bacteria is shown (susceptible bacteria; in vitro studies)
"C[C@@H]1O[C@@H]1P(=O)(O)O [Phosphomycine Trometamol, Phosphomycine trometamol]",3.608,3.743,3.824,–,–
C[C@@H]1O[C@@H]1P(=O)(O)O [Phosphomycine],–,–,–,reduced,30 min
